The results in this text go back to patent publication US20260062705A1, “TREATMENT FOR OVARIAN CANCER WITH OLIGONUCLEOTIDES TARGETING FIBROBLAST ACTIVATION PROTEIN ALPHA” (UNIVERSITY OF FLORIDA RESEARCH FOUNDATION, INCORPORATED, priority 2022, published 2026).

Where a SMILES comes first, the peptide text is derived from it. The star is where a group is joined. Cbz = O=C(OCc1ccccc1)*; CH2F = FC*

What all share (type): cell-based, human
Test [1] has as its system FAP-PRKDC co-localization in HEY cells. Kind of test: Confocal immunofluorescence staining of FAP and PRKDC. The note with it: 5 mM MBC for 1 day, FIG. 6E. As to the method:
(§1) Immunofluorescence staining: Cells were plated on coverslips for overnight and then fixed with 4% paraformaldehyde followed by permeabilization with 1% Triton X-100. Cells were washed three times with 1×PBS (Thermo Fisher, Cat #: 10010049). After brief blocking with 1% BSA, cells were incubated with anti-FAP mAb (Cat #sc-65398, Santa Cruz Biotechnology, Santa Cruz, CA) or anti-PRKDC polyclonal antibody (Cat #ab32566, Abcam) for 1 h and then with secondary antibody (Alexa Fluor® 488 and Alexa Fluor® 568) for another hour. Coverslips were mounted on […] using Permount solution (Cat #: P36961, Thermo Fisher) and cell fluorescence staining was viewed with confocal microscopy (Carl Zeiss Vision, LSM510). To locate lipid rafts, recombinant Cholera toxin subunit B conjugated with Alexa Fluor™ 647 (Cat #C34778, Thermo Fisher) was included during incubation with secondary antibody.
(§2) Both FAP and PRKDC have been reported to be present in the lipid rafts with unknown function (13, 14). We investigated whether FAP-PRKDC interaction occurred in lipid rafts. We first isolated lipid fraction from HEY and OVCAR8 cells followed by western blot analysis to detect FAP and PRKDC. As well characterized lipid raft marker caveolin-1, both FAP and PRKDC were readily seen in lipid raft isolates (FIG. 6C). […]

Test [2] has as its system FAP-PRKDC co-localization in OVCAR8 cells. Described as above. The note with it: 5 mM MBC for 1 day, FIG. 6E. As to the method:
as §1, §2

Test [3] relates to HEY cells. As to the kind of experiment: CCK-8 cell viability assay. The following applies: for effect on cell viability: 100 nM for 4 days, FIG. 4D. Here is the method:
(§3) Briefly, cells were cultured in 96-well plates and CCK-8 reagent was added to cells. After 2-h incubation at 37° C., absorbance was measured using a Bio-Rad plate reader at 460 nm. In vitro invasion was assayed using Matrigel invasion chamber available from Cell Biolabs Inc (San Diego, CA) according to manufacturer's protocol. Flow cytometry-based cell apoptosis was determined using Dead Cell Apoptosis Kits with Annexin V (Thermo Fisher, Cat #V13242) according to manufacturer's protocol. Lipid raft fractions were prepared using Minute™ Plasma Membrane-Derived Lipid Raft Isolation Kit (Invent Biotechnologies, Plymouth, MN) according to manufacturer's protocol.
On the technique in general: Tetrazolium assays rely on reduction of a dye to a coloured formazan, in cell work by metabolically active cells.

Test [4] deals with OVCAR8 cells. As to the kind of experiment: CCK-8 cell viability assay. The following applies: for effect on cell viability: 100 nM for 4 days, FIG. 4D. Here is the method:
as §3

As to Methyl-beta-cyclodextrin [MBC], the “FAP-PRKDC co-localization after disruption of lipid rafts” value in test [1] and in test [2] was “undetectable FAP-PRKDC co-localization” each time.
Turning to `CC[C@H](NC(=O)[C@H](C)NC)C(=O)N1C[C@@H](O)C[C@H]1Cc1c(-c2[nH]c3cc(F)ccc3c2C[C@@H]2C[C@H](O)CN2C(=O)[C@H](CC)NC(=O)[C@H](C)NC)[nH]c2cc(F)ccc12` [Birinapant], the “effect on cell viability” value in test [3] (HEY cells) and in test [4] (OVCAR8 cells) was “much less inhibitory effect” each time.
With `CC(C)[C@H](N)C(=O)N1CCC[C@H]1B(O)O` [Alabostat, Talabostat], the effect on survival result was “little effect” in test [3] (HEY cells, 1 mM Batimastat or 1 μM Talabostat alone or in combination, 4 days, FIG. 9) and “little effect” in test [4] (OVCAR8 cells, 1 mM Batimastat or 1 μM Talabostat alone or in combination, 4 days, FIG. 9).
Turning to `Cc1c(-c2c(-c3ccc(F)o3)sc3ncnc(O[C@H](Cc4ccccc4OCc4ccnn4CC(F)(F)F)C(=O)O)c23)ccc(OCCN2CCN(C)CC2)c1Cl` [S63845], the “effect on cell viability” value in test [3] (HEY cells) and in test [4] (OVCAR8 cells) was “much less inhibitory effect” throughout.
On to `COCCn1c2c([n+](Cc3cnccn3)c1C)C(=O)c1ccccc1C2=O` [YM155], for which the “effect on cell viability” value in test [3] (HEY cells) and in test [4] (OVCAR8 cells) was “significant decrease in cell viability” in each case.
For `COC(=O)C[C@H](NC(=O)[C@H](C)NC(=O)[C@@H](NC(=O)OCc1ccccc1)C(C)C)C(=O)CF` [zVAD] (Cbz-Val-Ala-Asp(OMe)-CH2F), the “effect on FAP shRNA-led cell death” value in test [3] (HEY cells transduced with FAP shRNA, 10 μM from one day post-infection, total 4 days, FIG. 2E) was “blocked anti-FAP shRNA-led cell death”; in test [4] (OVCAR8 cells transduced with FAP shRNA, 10 μM from one day post-infection, total 4 days, FIG. 2E), “blocked anti-FAP shRNA-led cell death”.
